Data published in patent publication US9339508B2, “Use of 3-methoxy-pregnenolone for the preparation of a drug for treating a traumatic brain injury” (MAPREG, priority 2003, dated 2016).

Columns and labels:
Sprague Dawley rats = test: Forced swimming test (FST); assay type: in vivo, rat; settings: 10 mg/kg subcutaneously, 24, 5, 1 h before testing
Protocol: Drugs were administered following the traditional dosing regimen used in the FST consisting of three injections: 24, 5, 1 h before testing.
The FET is currently the most widely used animal model for assessing depression related behavior and antidepressant drug activity in rodents (Cryan et al., Neubiorev. 2005). Rats are placed in an inescapable cylinder of water where they develop an immobile posture believed to reflect a “depressive”-like state. The Lime rats spend immobile is decreased by drugs exerting antidepressant activity.
Additional behaviors can be detected in the FST; namely, climbing and swimming. It has been shown that swimming behavior is sensitive to SSRIs such as fluoxetine whereas climbing is sensitive to norepinephrine re-uptake inhibitors (NRI) such as desipramine.

MAP2 = test: Western blot of MAP2 in cortex and hippocampus after CCI; assay type: in vivo, rat; settings: day 35, 20 mg/kg, first injection 2 h post-trauma, injured and non-injured cortex and hippocampus
Protocol: CCI was performed with an electromagnetic impact device as described (MyNeurolab, St. Louis, Mo.; Brody et al, 2007). Anesthesized rats were subjected to a single right lateral CCI, with the following parameters impact centered 4.0 mm anterior to lambda and 4.5 mm […] of midline, within the craniotomy of the animal. The impact was set at a velocity of 4 m/s with a sustained depression of 200 ms, using a 5.0 mm tip.
Samples were analyzed by Western-blot at day 35 post-trauma (D35) to evaluate the effects of MAP4343 on: MAP2 (the target of MAP4343 and a modulator of microtubule function), the post-synaptic markers PSD95 and spinophilin, the pre-synaptic marker synaptophysin, and the axonal growth/integrity marker […].
Western blot was performed on cortex and hippocampus of TBI-injured animals receiving the first injection of MAP4343 (at 10 mg/kg or 20 mg/kg) or vehicle (sesame oil) 2 h after injury.
The expression level of various neuronal brain markers of plasticity was measured at day 35 post-trauma by western-blots in the cortex and hippocampus of left uninjured and right injured cerebral hemispheres of CCI traumatized animals receiving either vehicle (sesame oil, CCI-D0) or 3-methoxy-PREG (MAP4343) at 10 mg/kg (CCI-D1) or 20 mg/kg (CCI-D2), with first MAP4343 injection 2 h post-trauma.

[1] = Neurosteroids and 43B levels in rat plasma and hippocampus; settings: 3 h after 10 mg/kg subcutaneously

For CO[C@H]1CC[C@@]2(C)C(=CC[C@H]3[C@@H]4CC[C@H](C(C)=O)[C@@]4(C)CC[C@@H]32)C1 [3-methoxy-PREG, 3β-methoxy-pregna-5-ene-20-one], the “rat climbing behavior in the FST” value (Sprague Dawley rats) was “not changed”, the “rat immobility in the FST” value (Sprague Dawley rats) was “significantly decreased” and the “rat swimming in the FST” value (Sprague Dawley rats) was “significantly increased”. The MAP2 expression (MAP2) was “strong increase of MAP-2” and the “conversion to PREG or PROG” value [1] was “not converted back to PREG or metabolized to PROG”.
